Assay results taken from patent US20250205259A1, “CLASS OF 7-((FIVE-MEMBERED HETEROCYCLIC)METHYL)-8-CARBOXYLIC ACID-BENZO CYCLIC BORATE DERIVATIVES AND USES THEREOF” (priority 2022, published 2025).
Like-named read-outs stand apart in the source and are kept apart here.

Assays:
Format in all cases: biochemical
OXA-48 = OXA-48 (Klebsiella pneumoniae, UniProt Q6XEC0); test: Inhibitory activity on SBL, fluorescent substrate FC-5; conditions: for IC50: read-out: Inhibitory activity on SBL OXA-48 (IC50 class); for inhibitory activity on OXA-48 compared to avibactam: comparison in words
NDM-1 = NDM-1 (Klebsiella pneumoniae, UniProt C7C422); test: Inhibitory activity on MBL, fluorescent substrate FC-5
IMP-1 = IMP-1 (Serratia marcescens, UniProt P52699); test: as above
CTX-M-14 = CTX-M-14 (Escherichia coli, UniProt Q9L5C7); test: Inhibitory activity on SBL, fluorescent substrate FC-5; conditions: for IC50: read-out: Inhibitory activity on SBL CTX-M-14 (IC50 class); for inhibitory activity on CTX-M-14 compared to avibactam: comparison in words
KPC-2 = KPC-2 (Klebsiella pneumoniae, UniProt Q9F663); test: as above; conditions: for IC50: read-out: Inhibitory activity on SBL KPC-2 (IC50 class); for inhibitory activity on KPC-2 compared to avibactam: comparison in words
VIM-2 = VIM-2 (Escherichia coli, UniProt Q5U7L7); test: Inhibitory activity on MBL, fluorescent substrate FC-5; conditions: read-out: Inhibitory activity on MBL VIM-2 (IC50 class)
VIM-1 = VIM-1 (Pseudomonas aeruginosa, UniProt A0A0F7KYQ8); test: as above
TEM-1 = TEM-1 (Escherichia coli, UniProt P62593); test: Inhibitory activity on SBL, fluorescent substrate FC-5; conditions: for IC50: read-out: Inhibitory activity on SBL TEM-1 (IC50 class); for inhibitory activity on TEM-1 compared to avibactam: comparison in words
NDM-5 = NDM-5 (Klebsiella pneumoniae, UniProt C7C422, M154L/V88L); test: Inhibitory activity on MBL, fluorescent substrate FC-5
SHV-12 = target: T1, SHV-12 (UniProt P0AD64, L31Q/G234S/E235K, species not given); test: Inhibitory activity on SBL, fluorescent substrate FC-5; conditions: for IC50: read-out: Inhibitory activity on SBL SHV-12 (IC50 class)
T1 sequence (P0AD64 1-286 L31Q/G234S/E235K): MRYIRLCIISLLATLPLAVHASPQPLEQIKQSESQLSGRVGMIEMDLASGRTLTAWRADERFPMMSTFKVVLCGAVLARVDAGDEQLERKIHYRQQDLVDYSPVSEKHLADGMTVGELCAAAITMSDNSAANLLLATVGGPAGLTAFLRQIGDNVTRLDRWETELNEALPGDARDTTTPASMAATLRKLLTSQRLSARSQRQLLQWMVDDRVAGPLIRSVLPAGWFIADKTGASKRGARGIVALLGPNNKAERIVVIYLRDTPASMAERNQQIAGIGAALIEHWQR

[1] = read-out: Inhibitory activity on MBL NDM-1 (IC50 class)
[2] = read-out: Inhibitory activity on MBL IMP-1 (IC50 class)
[3] = read-out: Inhibitory activity on MBL VIM-1 (IC50 class)
[4] = read-out: Inhibitory activity on MBL NDM-5 (IC50 class)
[5] = read-out: inhibitory activity at a nanomolar-level on NDM-1
[6] = IMP-1 and/or IMP-4, read-out: inhibitory activity at a nanomolar-level on IMP-1 and/or IMP-4
[7] = VIM-1 and/or VIM-2, read-out: inhibitory activity at a nanomolar-level on VIM-1 and/or VIM-2
[8] = read-out: inhibitory activity at a nanomolar-level on NDM-5

OXA-48, sequence (Q6XEC0 23-265 limits assumed): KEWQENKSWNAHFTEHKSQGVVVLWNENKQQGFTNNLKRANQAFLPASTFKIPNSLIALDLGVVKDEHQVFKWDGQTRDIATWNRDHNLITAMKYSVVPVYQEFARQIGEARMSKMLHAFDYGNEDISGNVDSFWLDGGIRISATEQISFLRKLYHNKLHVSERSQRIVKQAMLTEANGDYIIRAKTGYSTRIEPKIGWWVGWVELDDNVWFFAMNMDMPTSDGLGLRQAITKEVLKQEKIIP
NDM-1, sequence (C7C422 29-270 limits assumed): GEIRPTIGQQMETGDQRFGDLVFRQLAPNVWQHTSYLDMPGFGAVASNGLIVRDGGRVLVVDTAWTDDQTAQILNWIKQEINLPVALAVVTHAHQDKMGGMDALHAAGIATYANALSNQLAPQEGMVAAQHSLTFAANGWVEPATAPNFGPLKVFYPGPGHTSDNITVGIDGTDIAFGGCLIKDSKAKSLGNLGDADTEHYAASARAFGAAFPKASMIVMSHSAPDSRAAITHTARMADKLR
KPC-2, sequence (Q9F663 25-293 limits assumed): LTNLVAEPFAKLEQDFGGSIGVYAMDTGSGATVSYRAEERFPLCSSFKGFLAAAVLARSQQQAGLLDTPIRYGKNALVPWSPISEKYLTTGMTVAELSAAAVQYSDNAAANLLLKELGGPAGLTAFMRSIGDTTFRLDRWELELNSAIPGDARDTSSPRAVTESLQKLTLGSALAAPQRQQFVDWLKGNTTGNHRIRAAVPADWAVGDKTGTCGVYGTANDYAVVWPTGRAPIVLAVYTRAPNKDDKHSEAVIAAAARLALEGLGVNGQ
TEM-1, sequence (P62593 24-286 limits assumed): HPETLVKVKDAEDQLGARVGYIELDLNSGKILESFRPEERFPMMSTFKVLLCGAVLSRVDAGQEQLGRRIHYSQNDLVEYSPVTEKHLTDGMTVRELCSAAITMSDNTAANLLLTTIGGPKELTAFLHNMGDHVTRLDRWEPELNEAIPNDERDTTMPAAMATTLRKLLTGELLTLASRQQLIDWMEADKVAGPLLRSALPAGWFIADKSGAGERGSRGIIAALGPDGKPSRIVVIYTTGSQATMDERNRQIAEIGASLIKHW
CTX-M-14, sequence (Q9L5C7 entry or part of it): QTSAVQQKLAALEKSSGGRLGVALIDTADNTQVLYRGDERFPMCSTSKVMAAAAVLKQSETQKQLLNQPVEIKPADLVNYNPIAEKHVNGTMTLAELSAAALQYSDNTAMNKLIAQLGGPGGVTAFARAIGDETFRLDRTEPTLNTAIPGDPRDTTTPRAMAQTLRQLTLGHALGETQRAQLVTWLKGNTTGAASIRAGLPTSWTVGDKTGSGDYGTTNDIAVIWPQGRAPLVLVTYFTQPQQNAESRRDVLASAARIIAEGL
IMP-1, sequence (P52699 19-246 limits assumed): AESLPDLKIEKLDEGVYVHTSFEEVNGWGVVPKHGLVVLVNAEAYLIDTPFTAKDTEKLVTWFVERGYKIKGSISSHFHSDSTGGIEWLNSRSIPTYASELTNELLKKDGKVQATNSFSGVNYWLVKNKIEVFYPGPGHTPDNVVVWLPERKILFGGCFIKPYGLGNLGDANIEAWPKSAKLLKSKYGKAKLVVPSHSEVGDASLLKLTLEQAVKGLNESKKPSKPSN
NDM-5, sequence (C7C422 29-270 V88L/M154L): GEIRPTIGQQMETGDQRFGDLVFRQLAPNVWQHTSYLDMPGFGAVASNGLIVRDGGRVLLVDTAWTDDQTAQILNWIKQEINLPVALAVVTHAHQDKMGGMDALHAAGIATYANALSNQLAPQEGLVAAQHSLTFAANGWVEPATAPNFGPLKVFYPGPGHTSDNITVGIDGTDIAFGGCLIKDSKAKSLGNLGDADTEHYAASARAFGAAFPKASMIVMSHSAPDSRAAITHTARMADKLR

SMILES	IC50 (OXA-48)	IC50 (NDM-1; [1])	IC50 (IMP-1; [2])	IC50 (CTX-M-14)	IC50 (KPC-2)	IC50 (VIM-2)	IC50 (VIM-1; [3])	IC50 (TEM-1)	IC50 (NDM-5; [4])	IC50 (SHV-12)	IC50 (NDM-1; [5])	inhibitory activity on OXA-48 compared to avibactam (OXA-48)	inhibitory activity on CTX-M-14 compared to avibactam (CTX-M-14)	inhibitory activity on KPC-2 compared to avibactam (KPC-2)	IC50 (VIM-1; [7])	inhibitory activity on TEM-1 compared to avibactam (TEM-1)	IC50 (NDM-5; [8])	also measured
NC1(c2cnn(Cc3ccc4c(c3C(=O)O)OB(O)CC4)c2)CC1 [Compound 40]	10 to 1000 nM	1000 to 100000 nM	1000 to 100000 nM	10 to 1000 nM	< 10 nM	10 to 1000 nM	1000 to 100000 nM	< 10 nM	10 to 1000 nM	10 to 1000 nM								
NC(=O)[C@@H]1CC[C@@H]2CN1C(=O)N2OS(=O)(=O)O [Avibactam, reference compound]		> 100000 nM	> 100000 nM	< 10 nM		> 100000 nM	> 100000 nM		> 100000 nM	< 10 nM								
NS(=O)(=O)Nc1cnn(Cc2ccc3c(c2C(=O)O)OB(O)CC3)c1 [Compound 34]	< 10 nM	10 to 1000 nM	1000 to 100000 nM	< 10 nM	< 10 nM	10 to 1000 nM	1000 to 100000 nM	< 10 nM		10 to 1000 nM	< 1000 nM							IC50 (NDM-5; Inhibitory activity on MBL NDM-5 (IC50 class)): 10 to 1000 nM; IC50 (NDM-5; inhibitory activity at a nanomolar-level on NDM-5): < 1000 nM
NCCN1Cc2cn(Cc3ccc4c(c3C(=O)O)OB(O)CC4)nc2C1 [Compound 70]	10 to 1000 nM	10 to 1000 nM	10 to 1000 nM	10 to 1000 nM	< 10 nM	10 to 1000 nM	10 to 1000 nM	< 10 nM	10 to 1000 nM	< 10 nM	< 1000 nM	better or comparable	better or comparable	better or comparable	< 1000 nM	better or comparable	< 1000 nM	IC50 (IMP-1; [6]): < 1000 nM; inhibitory activity on SHV-12 compared to control drugs (SHV-12; comparison in words): comparable to avibactam and tazobactam and superior to taniborbactam
O=C(O)c1c(Cn2cncn2)ccc2c1OB(O)CC2 [Compound 13]	< 10 nM	10 to 1000 nM	1000 to 100000 nM	< 10 nM	< 10 nM	10 to 1000 nM	1000 to 100000 nM	10 to 1000 nM	10 to 1000 nM	10 to 1000 nM	< 1000 nM				< 1000 nM		< 1000 nM	
N#Cc1cnn(Cc2ccc3c(c2C(=O)O)OB(O)CC3)c1 [Compound 17]	< 10 nM	10 to 1000 nM	1000 to 100000 nM	10 to 1000 nM	< 10 nM	10 to 1000 nM	1000 to 100000 nM	< 10 nM	10 to 1000 nM	10 to 1000 nM	< 1000 nM	better or comparable	better or comparable	better or comparable	< 1000 nM	better or comparable	< 1000 nM	
NS(=O)(=O)NCc1cnn(Cc2ccc3c(c2C(=O)O)OB(O)CC3)c1 [Compound 36]	< 10 nM	10 to 1000 nM	1000 to 100000 nM	10 to 1000 nM	< 10 nM	10 to 1000 nM	1000 to 100000 nM	< 10 nM	10 to 1000 nM	10 to 1000 nM	< 1000 nM						< 1000 nM	
O=C(O)c1c(CN2CC=CC2)ccc2c1OB(O)CC2 [Compound 26]	10 to 1000 nM	1000 to 100000 nM	1000 to 100000 nM	10 to 1000 nM	< 10 nM	1000 to 100000 nM	1000 to 100000 nM	10 to 1000 nM	1000 to 100000 nM	10 to 1000 nM								
Nc1ncc(-c2cn(Cc3ccc4c(c3C(=O)O)OB(O)CC4)nn2)cn1 [Compound 61]	< 10 nM	10 to 1000 nM	10 to 1000 nM	10 to 1000 nM	< 10 nM	10 to 1000 nM	10 to 1000 nM	10 to 1000 nM	10 to 1000 nM		< 1000 nM	better or comparable	better or comparable	better or comparable	< 1000 nM	better or comparable	< 1000 nM	IC50 (IMP-1; [6]): < 1000 nM
